# Tested on: peripheral blood leukocytes and neutrophils
# Settings: cyclophosphamide only, 50 mg/kg i.p.; blood at 96 hours; FIG. 4
# Protocol: Mice were injected intraperitoneally (i.p.) with 50 mg/kg body weight of cyclophospharnide. The mice were then divided into the following three groups:
# 2. Mice receiving cyclophosphamide only (control 1); and
# 3. An additional group of mice received oral administration of water only (control 2).
# Ninety six hours after the beginning of receiving the above treatments, blood samples were taken from each of the treated mice. Blood cell counts were carried out in a Coulter counter and differential cell counts were performed on smear preparations stained with May-Grunvald-Giemsa solution.
structure (smiles),measurement,value
O=P1(N(CCCl)CCCl)NCCCO1 (centres unmarked) [cyclophosphamide],number of neutrophils compared to mice without chemotherapeutic treatment (control 2),reduced
same,number of peripheral blood leukocytes compared to mice without chemotherapeutic treatment (control 2),reduced
